Results published in patent US20230085307A1, “PYRIDAZINONE COMPOUND AND HERBICIDE” (NISSAN CHEMICAL CORPORATION, priority 2019, published 2023).

Columns and labels:
windgrass [1] = test: Test Example 5: herbicidal effect by foliage application, plastic box (Table 20, symbol L); format: in vivo, windgrass (Apera spica-venti); settings: foliage application, AAH 320 g/ha, evaluated three weeks after application
Method in brief: (§1)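 Foliar spray test: emulsion formulation diluted in water to a set application rate, sprayed onto 14-day-old plants raised in diluvial soil at 25° C to 30° C under glass. Both herbicidal effect and crop effect rated visually three weeks later.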

lambsquarters [2] = test: Test Example 4: herbicidal effect by soil treatment (Table 19, symbol O); format: in vivo, lambsquarters (Chenopodium album); settings: amount of applied herbicide 320 g/ha
Method in brief: (§2)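 Step 1: sow seeds in sterilized diluvial soil, cover ~1.5 cm. Step 2: spray diluted emulsion onto soil surface at predetermined rate. Step 3: greenhouse, 25–30° C, three weeks. Step 4: grade effect on each plant by earlier criteria.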

barnyard grass [3] = test: Test Example 4: herbicidal effect by soil treatment (Table 19, symbol H); format: in vivo, barnyard grass (Echinochloa crus-galli); settings: amount of applied herbicide 320 g/ha
Method in brief: as §2

lambsquarters [4] = test: Test Example 5: herbicidal effect by foliage application, plastic box (Table 20, symbol O); format: in vivo, lambsquarters (Chenopodium album); settings: foliage application, AAH 320 g/ha, evaluated three weeks after application
Method in brief: as §1

blackgrass = test: Test Example 5: herbicidal effect by foliage application, plastic box (Table 20, symbol J); format: in vivo, blackgrass (Alopecurus myosuroides); settings: foliage application, AAH 320 g/ha, evaluated three weeks after application
Method in brief: as §1

redroot pigweed = test: Test Example 5: herbicidal effect by foliage application, plastic box (Table 20, symbol N); format: in vivo, redroot pigweed (Amaranthus retroflexus); settings: foliage application, AAH 320 g/ha, evaluated three weeks after application
Method in brief: as §1

southern crabgrass = test: Test Example 4: herbicidal effect by soil treatment (Table 19, symbol F); format: in vivo, southern crabgrass (Digitaria ciliaris); settings: amount of applied herbicide 320 g/ha
Method in brief: as §2

Chinese sprangletop = test: Test Example 3: herbicidal effect by foliage application, Wagner pot (Table 18, symbol D); format: in vivo, chinese sprangletop (Leptochloa chinensis); settings: amount of applied herbicide 320 g/ha
Method in brief: (§3)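 Plants were sown in alluvial soil held under 0.1–0.5 cm standing water and grown 14 days in a greenhouse at 25–30 °C. An emulsifiable formulation, water-diluted to the set dose, was then sprayed onto the foliage, and effects were scored three weeks later using previously defined criteria.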

late watergrass = test: Test Example 1: herbicidal activity, application before weed generation under submerged conditions (Table 16, symbol A); format: in vivo, late watergrass (Echinochloa oryzicola); settings: 320 g/ha applied herbicide
Method in brief: (§4)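 Emulsion formulation, water-diluted to set dose, was put onto the flooded surface (4 cm depth, alluvial soil) the same day weeds were sown and 2.5-leaf rice transplanted. After 3 weeks at 25-30 °C under glass, each species was rated 0 (≤5% kill) to 5 (≥90% kill).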

barnyard grass [5] = test: Test Example 5: herbicidal effect by foliage application, plastic box (Table 20, symbol H); format: in vivo, barnyard grass (Echinochloa crus-galli); settings: foliage application, AAH 320 g/ha, evaluated three weeks after application
Method in brief: as §1

windgrass [6] = test: Test Example 4: herbicidal effect by soil treatment (Table 19, symbol L); format: in vivo, windgrass (Apera spica-venti); settings: amount of applied herbicide 320 g/ha
Method in brief: as §2

Japanese bulrush [7] = test: Test Example 1: herbicidal activity, application before weed generation under submerged conditions (Table 16, symbol B); format: in vivo, Japanese bulrush (Schoenoplectus juncoides); settings: 320 g/ha applied herbicide
Method in brief: as §4

persian speedwell = test: Test Example 4: herbicidal effect by soil treatment (Table 19, symbol R); format: in vivo, Persian speedwell (Veronica persica); settings: amount of applied herbicide 320 g/ha
Method in brief: as §2

Japanese bulrush [8] = test: Test Example 2: herbicidal activity, application during weed generation under submerged conditions (Table 17, symbol B); format: in vivo, Japanese bulrush (Schoenoplectus juncoides); settings: AAH 320 g/ha; application during weed generation, submerged conditions
Method in brief: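 3-wk visual-criteria score after one water-surface dose. Emulsion formulation, water-diluted to set rate; applied at 1–2 leaf stage; alluvial soil, 4 cm standing water; seeds co-sown; greenhouse 25–30° C.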

chickweed = test: Test Example 5: herbicidal effect by foliage application, plastic box (Table 20, symbol P); format: in vivo, common chickweed (Stellaria media); settings: foliage application, AAH 320 g/ha, evaluated three weeks after application
Method in brief: as §1

barnyard grass [9] = test: Test Example 3: herbicidal effect by foliage application, Wagner pot (Table 18, symbol H); format: in vivo, barnyard grass (Echinochloa crus-galli); settings: amount of applied herbicide 320 g/ha
Method in brief: as §3

Compound: Cc1nn(C)c(=O)c(-c2c(-c3ccc(OC(F)F)cc3)sc3ccc(F)cc23)c1OC(=O)C1CCCO1 (stereo not shown) [2-289]
- L: windgrass, herbicidal effect (criteria 0-5) (windgrass [1]): 5 (Herbicidal rate of 90% or more (almost completely withered))
- herbicidal effect on O: lambsquarters (lambsquarters [2]): 5 (Herbicidal rate of 90% or more (almost completely withered))
- herbicidal effect on H: barnyard grass (barnyard grass [3]): 5 (Herbicidal rate of 90% or more (almost completely withered))
- O: lambsquarters, herbicidal effect (criteria 0-5) (lambsquarters [4]): 5 (Herbicidal rate of 90% or more (almost completely withered))
- J: blackgrass, herbicidal effect (criteria 0-5) (blackgrass): 4 (Herbicidal rate of 70% or more and less than 90%)
- N: redroot pigweed, herbicidal effect (criteria 0-5) (redroot pigweed): 5 (Herbicidal rate of 90% or more (almost completely withered))
- herbicidal effect on F: southern crabgrass (southern crabgrass): 5 (Herbicidal rate of 90% or more (almost completely withered))
- herbicidal effect on D: Chinese sprangletop (Chinese sprangletop): 3 (Herbicidal rate of 40% or more and less than 70%)
- Herbicidal effect on A: late watergrass (grade 0-5) (late watergrass): 4 (Herbicidal rate of 70% or more and less than 90%)
- H: barnyard grass, herbicidal effect (criteria 0-5) (barnyard grass [5]): 5 (Herbicidal rate of 90% or more (almost completely withered))
- herbicidal effect on L: windgrass (windgrass [6]): 4 (Herbicidal rate of 70% or more and less than 90%)
- Herbicidal effect on B: Japanese bulrush (grade 0-5) (Japanese bulrush [7]): 3 (Herbicidal rate of 40% or more and less than 70%)
- herbicidal effect on R: persian speedwell (persian speedwell): 5 (Herbicidal rate of 90% or more (almost completely withered))
- herbicidal effect rating, B: Japanese bulrush (Japanese bulrush [8]): 3 (Herbicidal rate of 40% or more and less than 70%)
- P: chickweed, herbicidal effect (criteria 0-5) (chickweed): 5 (Herbicidal rate of 90% or more (almost completely withered))
- herbicidal effect on H: barnyard grass (barnyard grass [9]): 5 (Herbicidal rate of 90% or more (almost completely withered))

Compound: CCOC(=O)Oc1c(C)nn(C)c(=O)c1-c1c(-c2ccc(OC(F)F)cc2)sc2ccc(F)cc12 [2-292]
- L: windgrass, herbicidal effect (criteria 0-5) (windgrass [1]): 2 (Herbicidal rate of 20% or more and less than 40%)
- herbicidal effect on O: lambsquarters (lambsquarters [2]): 5 (Herbicidal rate of 90% or more (almost completely withered))
- herbicidal effect on H: barnyard grass (barnyard grass [3]): 5 (Herbicidal rate of 90% or more (almost completely withered))
- O: lambsquarters, herbicidal effect (criteria 0-5) (lambsquarters [4]): 5 (Herbicidal rate of 90% or more (almost completely withered))
- J: blackgrass, herbicidal effect (criteria 0-5) (blackgrass): 4 (Herbicidal rate of 70% or more and less than 90%)
- N: redroot pigweed, herbicidal effect (criteria 0-5) (redroot pigweed): 5 (Herbicidal rate of 90% or more (almost completely withered))
- herbicidal effect on F: southern crabgrass (southern crabgrass): 3 (Herbicidal rate of 40% or more and less than 70%)
- herbicidal effect on D: Chinese sprangletop (Chinese sprangletop): 4 (Herbicidal rate of 70% or more and less than 90%)
- Herbicidal effect on A: late watergrass (grade 0-5) (late watergrass): 5 (Herbicidal rate of 90% or more (almost completely withered))
- H: barnyard grass, herbicidal effect (criteria 0-5) (barnyard grass [5]): 5 (Herbicidal rate of 90% or more (almost completely withered))
- herbicidal effect on L: windgrass (windgrass [6]): 1 (Herbicidal rate of 5% or more and less than 20%)
- Herbicidal effect on B: Japanese bulrush (grade 0-5) (Japanese bulrush [7]): 5 (Herbicidal rate of 90% or more (almost completely withered))
- herbicidal effect on R: persian speedwell (persian speedwell): 5 (Herbicidal rate of 90% or more (almost completely withered))
- herbicidal effect rating, B: Japanese bulrush (Japanese bulrush [8]): 5 (Herbicidal rate of 90% or more (almost completely withered))
- P: chickweed, herbicidal effect (criteria 0-5) (chickweed): 5 (Herbicidal rate of 90% or more (almost completely withered))
- herbicidal effect on H: barnyard grass (barnyard grass [9]): 5 (Herbicidal rate of 90% or more (almost completely withered))

Compound: Cc1nn(C)c(=O)c(-c2c(-c3ccc(OC(F)F)cc3)sc3ccc(F)cc23)c1OC(=O)OCCCl [2-293]
- L: windgrass, herbicidal effect (criteria 0-5) (windgrass [1]): 4 (Herbicidal rate of 70% or more and less than 90%)
- herbicidal effect on O: lambsquarters (lambsquarters [2]): 5 (Herbicidal rate of 90% or more (almost completely withered))
- herbicidal effect on H: barnyard grass (barnyard grass [3]): 5 (Herbicidal rate of 90% or more (almost completely withered))
- O: lambsquarters, herbicidal effect (criteria 0-5) (lambsquarters [4]): 5 (Herbicidal rate of 90% or more (almost completely withered))
- J: blackgrass, herbicidal effect (criteria 0-5) (blackgrass): 5 (Herbicidal rate of 90% or more (almost completely withered))
- N: redroot pigweed, herbicidal effect (criteria 0-5) (redroot pigweed): 5 (Herbicidal rate of 90% or more (almost completely withered))
- herbicidal effect on F: southern crabgrass (southern crabgrass): 4 (Herbicidal rate of 70% or more and less than 90%)
- herbicidal effect on D: Chinese sprangletop (Chinese sprangletop): 3 (Herbicidal rate of 40% or more and less than 70%)
- Herbicidal effect on A: late watergrass (grade 0-5) (late watergrass): 5 (Herbicidal rate of 90% or more (almost completely withered))
- H: barnyard grass, herbicidal effect (criteria 0-5) (barnyard grass [5]): 5 (Herbicidal rate of 90% or more (almost completely withered))
- herbicidal effect on L: windgrass (windgrass [6]): 4 (Herbicidal rate of 70% or more and less than 90%)
- Herbicidal effect on B: Japanese bulrush (grade 0-5) (Japanese bulrush [7]): 5 (Herbicidal rate of 90% or more (almost completely withered))
- herbicidal effect on R: persian speedwell (persian speedwell): 5 (Herbicidal rate of 90% or more (almost completely withered))
- herbicidal effect rating, B: Japanese bulrush (Japanese bulrush [8]): 3 (Herbicidal rate of 40% or more and less than 70%)
- P: chickweed, herbicidal effect (criteria 0-5) (chickweed): 5 (Herbicidal rate of 90% or more (almost completely withered))
- herbicidal effect on H: barnyard grass (barnyard grass [9]): 5 (Herbicidal rate of 90% or more (almost completely withered))

Compound: Cc1nn(C)c(=O)c(-c2c(-c3ccc(OC(F)F)cc3)sc3ccc(F)cc23)c1OC(=S)Sc1ccccc1 [2-298]
- L: windgrass, herbicidal effect (criteria 0-5) (windgrass [1]): 0 (Herbicidal rate of 5% or less (almost no effect))
- herbicidal effect on O: lambsquarters (lambsquarters [2]): 3 (Herbicidal rate of 40% or more and less than 70%)
- herbicidal effect on H: barnyard grass (barnyard grass [3]): 0 (Herbicidal rate of 5% or less (almost no effect))
- O: lambsquarters, herbicidal effect (criteria 0-5) (lambsquarters [4]): 5 (Herbicidal rate of 90% or more (almost completely withered))
- J: blackgrass, herbicidal effect (criteria 0-5) (blackgrass): 4 (Herbicidal rate of 70% or more and less than 90%)
- N: redroot pigweed, herbicidal effect (criteria 0-5) (redroot pigweed): 5 (Herbicidal rate of 90% or more (almost completely withered))
- herbicidal effect on F: southern crabgrass (southern crabgrass): 0 (Herbicidal rate of 5% or less (almost no effect))
- herbicidal effect on D: Chinese sprangletop (Chinese sprangletop): 3 (Herbicidal rate of 40% or more and less than 70%)
- Herbicidal effect on A: late watergrass (grade 0-5) (late watergrass): 3 (Herbicidal rate of 40% or more and less than 70%)
- H: barnyard grass, herbicidal effect (criteria 0-5) (barnyard grass [5]): 5 (Herbicidal rate of 90% or more (almost completely withered))
- herbicidal effect on L: windgrass (windgrass [6]): 0 (Herbicidal rate of 5% or less (almost no effect))
- Herbicidal effect on B: Japanese bulrush (grade 0-5) (Japanese bulrush [7]): 3 (Herbicidal rate of 40% or more and less than 70%)
- herbicidal effect on R: persian speedwell (persian speedwell): 1 (Herbicidal rate of 5% or more and less than 20%)
- herbicidal effect rating, B: Japanese bulrush (Japanese bulrush [8]): 3 (Herbicidal rate of 40% or more and less than 70%)
- P: chickweed, herbicidal effect (criteria 0-5) (chickweed): 5 (Herbicidal rate of 90% or more (almost completely withered))
- herbicidal effect on H: barnyard grass (barnyard grass [9]): 5 (Herbicidal rate of 90% or more (almost completely withered))
